Data taken from patent publication US20200061076A1, “METHODS OF TREATING LEUKODYSTROPHIES” (Ramot at Tel-Aviv University Ltd., priority 2017, published 2020).

Legend:
[1] = system: Hedgehog signaling pathway; assay: Luciferase activity assay in Shh-LIGHT2 cells (Gli1-controlled Firefly / constitutive Renilla); type: cell-based; details: for Firefly/Renilla luciferase expression (Hedgehog activation): absence of SAG, 24 hours (FIG. 11A); for SAG-induced HH activity (Firefly/Renilla luciferase): presence of SAG at 50 nM, 24 hours (FIG. 11B)
Protocol: Following lysis, luminescence was measured using the Dual Luciferase assay kit (Promega) followed by Firefly/Renilla luciferase ratio calculation for each treatment. Shown is average Firefly/Renilla luciferase activity ±SD of 3 independent experiments. *p<0.04. […] RNA was extracted from brains of P18 and P21 Mut and WT mice. cDNA was prepared by reverse transcription and subjected to qPCR using primers specific to Gli1 and GAPDH (SEQ ID NOs: 1-2 and 3-4, respectively). Relative quantity (RQ) was calculated by the ΔΔCt method. * p<0.02 [vs control (FIG. 11A) or vs SAG treated cells (FIG. 11B)].
Shh-LIGHT2 cells were seeded at a density of 10,000 cells per well in a 96-wells plate in growing medium. 24 hours post-plating the cells were incubated for additional 24 hours with the tested compounds in low serum media (0.5%) without G418 and Zeocin. Following lysis, Firefly and Renilla luminescence was measured using the Dual Luciferase assay kit (Promega) and a Veritas microplate luminometer (Turner Biosystems).
To test if p8C10 (H5), p8G7 (H9) and p9E6 (H15) compounds that were identified in the screen indeed affect Hedgehog signaling, SHH-lightII cells which stably express an inducible Firefly-Luciferase reporter gene under the control of Gli1 (a read-out of Hedgehog activation) and constitutive Renilla-Luciferase for normalization purposes (Taipale et al. 2000) were used. […] Therefore, p9E6 was identified as an agonist. SHH activation is required for the first steps of oligodendrocyte differentiation, while a subsequent decrease in Hedgehog activity is needed for complete differentiation and myelin production (Bouslama-Oueghlani et al. 2012) and re-myelination (Samanta et al. 2015).

[2] = system: Mut MEFs; assay: Cell survival assay, Crystal violet staining, Mut MEFs; type: cell-based, mouse; details: for Survival (%) ± SEM Mut MEFs: 24 hours, untreated cells set to 100%
Protocol: (§1) Cells were seeded on 96-wells plate at a density of 5000 cells per well. Astrocytes were seeded following coating with 0.001% PDL.

[3] = system: Mut MEFs; assay: Survival under Tunicamycin-induced ER stress, Crystal Violet, MEFs; details: Mut MEFs, 30 μM, 50 ng/ml Tunicamycin 22 hours (FIG. 20B)
Protocol: Mut MEFs were treated or not for 24 hours with the indicated concentrations of the indicated Sig-1R binders in the presence of 0.1 μg/ml Tunicamycin (Tun) during the last 22 hours. Following, the cells were washed, fixated and stained with Crystal Violet (CV) followed by measurement of absorbance at 570 nm. Shown is average % of CV staining relative to cells not treated with tunicamycin nor Sig-1R binder ±SEM of 3 independent experiments. *p<0.03.
Following, the cells were washed, fixated and stained with Crystal Violet and absorbance at 570 nm was measured. Data is presented relative to cells of the corresponding genotype not treated with p8G5 nor Tunicamycin. Shown is average % of CV staining ±SEM of 3 independent experiments.
Mut MEFs were treated or not for 24 hours with 10, 20 or 30 μM of the indicated Sig-1R binders in the presence of 50 ng/ml Tunicamycin (Tun) during the last 22 hours. Following, the cells were washed, fixated and stained with Crystal Violet (CV) followed by measurement of absorbance at 570 nm. Shown is % of CV staining relative to cells not treated with tunicamycin nor Sig-1R binder ±SEM of 3 independent experiments, *p<0.05.
Mut MEFs were incubated or not with the indicated concentrations of the indicated compounds for 2 hours followed by addition of 50 ng/ml Tunicamycin (Tun) for additional 22 hours, stained with Crystal Violet followed by measurement of absorbance at 570 nm. Shown is average normalized to Tun-treated cells without any compound ±SEM of 3 independent experiments. * not significant; ** p<0.02; *** all values p<0.04.

[4] = system: Mut MEFs; assay: JC1 staining of intact and damaged mitochondria (mitochondrial membrane potential); type: cell-based, mouse; details: Mut MEFs, 10 μM; for effect on mitochondrial health (JC1, intact and damaged mitochondria): 24 hours (FIG. 14C)
Protocol: Mut MEFs were treated or not for 6 hours with the indicated concentrations of p8G5 (blue), pre084 (purple), or NE-100 (yellow), washed and stained with Hoechst and JC1 for 30 minutes followed by image acquisition using In-Cell-Analyzer-2000. Shown is the % of red/green JC1 integrated intensity per cell relative to that in untreated WT cells of 2-4 independent experiments.
Following, the cells were washed, stained with Hoechst and JC-1 fluorescent dyes for 30 minutes, and subjected to image acquisition using In-Cell-Analyzer-2000. Shown is cellular content of damaged mitochondria (JC1 green channel, red bars), intact mitochondria (JC1 red channel, green bars) and damaged to intact mitochondria ratio (blue bars). Values of control (vehicle treated) cells was set to 100%.
Mut MEFs were treated with the indicated compounds at 10 μM for 24 hours followed by staining with fluorogenic dyes and image-based single-cell analysis. Shown is average effect on ROS level from at least 3-independent experiments ±SEM. […] Mut MEFs were incubated or not for 24 hours with 10 μM of the indicated compound, washed and stained with Crystal Violet. […] Mut MEFs were incubated or not for 24 hours with 10 μM of the indicated compound, washed and stained with JC1 and Hoechst followed by image-based single-cell analysis. Values of untreated cells were set as 100%. Shown is average of at least 3 independent experiments for each parameter compared to its matching control ±SEM. * p<0.05. Putative targets are indicated.
Mut MEFs were incubated or not for 24 hours with 10 μM of the indicated compounds, washed and stained with Hoechst and JC1 followed by image-based single-cell analysis. […] Mut MEFs were incubated or not with the indicated concentrations of the indicated compounds for 2 hours followed by addition of 50 ng/ml Tunicamycin (Tun) for additional 22 hours, stained with Crystal Violet followed by measurement of absorbance at 570 nm.
MEFs were seeded on 1% gelatin-coated 96-wells plate at a density of 5000 cells per well. 24 hours post-plating the cells were incubated with the tested compounds for additional 24 hours. Several DMSO-treated cells (control) were included in each plate at different locations. Following, the cells were stained by addition of fluorogenic dyes for further 30 minutes incubation at 37° C. […] CellROX was used together with Hoechst and CFSE; JC1 was used together with Hoechst. Cells were washed with Hank's balanced salt solution (HBSS) which was used for images acquisition using IN Cell Analyzer 2000 (GE Healthcare, Pitsburgh, Pa., USA). IN Cell Developer Toolbox 1.9.1 software (GE Healthcare) was used for analysis which included cells segmentation using Hoechst and/or CFSE signals. For analysis of JC1 staining, integrated intensity of green and red emissions were used for detection of damaged and intact mitochondria, respectively.

[5] = system: WT astrocytes; assay: Cell survival assay, Crystal violet staining, WT astrocytes; type: cell-based, mouse; details: 24 hours, untreated cells set to 100%
Protocol: as §1

[6] = system: Mut astrocytes; assay: Cell survival assay, Crystal violet staining, Mut astrocytes; type: cell-based, mouse; details: 24 hours, untreated cells set to 100%
Protocol: as §1

[7] = system: Mut MEFs; assay: mtDNA quantification (qPCR of mitochondrial 12S rRNA and nuclear 18S rRNA genes), MEFs; type: cell-based, mouse; details: 0.1 μM, 1 μM or 10 μM, 6 hours (FIG. 2)
Protocol: DNA extracted from WT and Mut MEFs that were treated or not for 6 hours with 0.1 μM, 1 μM or 10 μM of p8G5 (blue), Pre084 (known SIG-1R agonist, purple), pridopidine (known SIG-1R agonists, green) or NE-100 (known SIG-1R antagonist, yellow) was subjected to qPCR analysis of mitochondrial 12S rRNA and nuclear 18S rRNA genes.

[8] = system: Mut MEFs; assay: TMRE staining, flow cytometry; type: cell-based, mouse; details: all concentrations, 6 hours (FIG. 5A)
Protocol: Mut MEFs were treated or untreated with the indicated concentrations of the indicated Sig-1R binders for 6 hours, stained by TMRE for 30 minutes and analyzed by flow cytometry. Shown are flow cytometry histograms and bar graphs representing % mean TMRE fluorescence intensity relative to non-treated WT cells of a representative experiment.
MEFs were seeded at a density of 4×10^4 cells per well in a 24-wells plate. 24 hours post-plating the cells were incubated with the tested compounds for additional 6 hours followed by staining with 200 nM Tetra-Methyl-Rhodamine-Ethyl esterperchlorate (TMRE) (Abcam) for 30 minutes at 37° C. Cells were removed by trypsinyzation, washed and resuspended in PBS. 5-10×10^3 cells were analyzed by Stratedigm S1000EXi cell sorter and FlowJo software (FLOWJO, LLC, Ashland, Oreg., USA).

[9] = system: Mut MEFs; assay: Oxygen consumption (Seahorse XF Cell Mito Stress Test), MEFs; type: cell-based, mouse; details: 6 hours, normalized to biomass (FIGS. 7A-B)
Protocol: Mut MEFs were treated or not for 6 hours with the indicated concentrations of the indicated Sig-1R binders. Oxygen consumption was measured in a XF96 Extracellular Flux Analyzer using the Seahorse XF Cell Mito Stress Test Kit. The Basal respiration (FIG. 7A) and ATP-linked respiration (FIG. 7B) data were normalized to biomass as determined by Crystal Violet staining.
Mut MEFs were treated or not for 6 hours with the indicated concentrations of the indicated Sig-1R binders. Oxygen consumption was measured in a XF96 Extracellular Flux Analyzer using the Seahorse XF Cell Mito Stress Test Kit. The Basal respiration (FIG. 8A), ATP-linked respiration (FIG. 8B) and maximal respiration (FIG. 8C) data was normalized to mtDNA content as detailed in FIG. 2.
The data were normalized to cell number, obtained by Crystal Violet staining, or to mtDNA content.

C=CCn1c(-c2cc(OC)c(OC)c(OC)c2)nc2ccccc21 [Hit H5, 1-allyl-2-(3,4,5-trimethoxyphenyl)-1H-benzimidazole]
Firefly/Renilla luciferase expression (Hedgehog activation) [1]: not able to activate the pathway
SAG-induced HH activity (Firefly/Renilla luciferase) [1]: inhibited the SAG-induced HH activity

Cc1cc(C)cc(OCCCCCN2CCOCC2)c1 [Hit H8-1, 4-[5-(3,5-dimethylphenoxy)pentyl]morpholine]
Survival (%) ± SEM Mut MEFs ([2]; 10 μM): 104 ± 2.7%
Survival (%) ± SEM Mut MEFs ([2]; 20 μM): 103 ± 4.7%
Survival (%) ± SEM Mut MEFs ([2]; 30 μM): 97 ± 3.9%

Cc1ccc(OCCCCCN2CCOCC2)cc1C [Hit H8-2, 4-[5-(3,4-dimethylphenoxy)pentyl]morpholine]
Survival (%) ± SEM Mut MEFs ([2]; 10 μM): 92 ± 4.2%
Survival (%) ± SEM Mut MEFs ([2]; 20 μM): 94 ± 8.8%
Survival (%) ± SEM Mut MEFs ([2]; 30 μM): 95 ± 13.1%
cell survival following Tun-induced cell death [3]: most potent effect

Cc1cccc(OCCCCCCN2CCOCC2)c1 [Hit H8-3, 4-[6-(3-methylphenoxy)hexyl]morpholine]
Survival (%) ± SEM Mut MEFs ([2]; 10 μM): 100 ± 7.2%
Survival (%) ± SEM Mut MEFs ([2]; 20 μM): 96 ± 4.1%
Survival (%) ± SEM Mut MEFs ([2]; 30 μM): 88 ± 4.5%

Cc1cccc(OCCCCN2CCOCC2)c1 [Hit H8-4, 4-[4-(3-methylphenoxy)butyl]morpholine]
Survival (%) ± SEM Mut MEFs ([2]; 10 μM): 92 ± 8.5%
Survival (%) ± SEM Mut MEFs ([2]; 20 μM): 95 ± 4.2%
Survival (%) ± SEM Mut MEFs ([2]; 30 μM): 98 ± 5.4%

Cc1ccc(OCCCCN2CCOCC2)cc1C [Hit H8-5, 4-[4-(3,4-dimethylphenoxy)butyl]morpholine]
Survival (%) ± SEM Mut MEFs ([2]; 10 μM): 92 ± 1.7%
Survival (%) ± SEM Mut MEFs ([2]; 20 μM): 100 ± 4.4%
Survival (%) ± SEM Mut MEFs ([2]; 30 μM): 98 ± 13.8%
cell survival following Tun-induced cell death [3]: most potent effect

COc1cccc(OCCCCCN2CCOCC2)c1 [Hit H8-6, 4-[5-(3-methoxyphenoxy)pentyl]morpholine]
Survival (%) ± SEM Mut MEFs ([2]; 10 μM): 97 ± 5.1%
Survival (%) ± SEM Mut MEFs ([2]; 20 μM): 92 ± 1.1%
Survival (%) ± SEM Mut MEFs ([2]; 30 μM): 93 ± 5.2%
cell survival following Tun-induced cell death [3]: most potent effect

Clc1cccc(OCCCCCN2CCOCC2)c1 [Hit H8-7, 4-[5-(3-chlorophenoxy)pentyl]morpholine]
Survival (%) ± SEM Mut MEFs ([2]; 10 μM): 98 ± 5.1%
Survival (%) ± SEM Mut MEFs ([2]; 20 μM): 91 ± 4.7%
Survival (%) ± SEM Mut MEFs ([2]; 30 μM): 88 ± 9.7%
mitochondrial health, damaged/intact organelle ratio (JC1) ([4]; 24 hours (FIG. 20A)): at the top of the list
cell survival following Tun-induced cell death [3]: most potent effect

CN1CCN(CCCCCOc2ccccc2F)CC1 [Hit H8-8, 1-[5-(2-fluorophenoxy)pentyl]-4-methylpiperazine]
Survival (%) ± SEM Mut MEFs ([2]; 10 μM): 101 ± 5.6%
Survival (%) ± SEM Mut MEFs ([2]; 20 μM): 99 ± 11%
Survival (%) ± SEM Mut MEFs ([2]; 30 μM): 90 ± 3.5%

O=C(Cc1ccccc1)N1CCN(c2ccccc2F)CC1 [Hit H9, 1-(2-fluorophenyl)-4-(phenylacetyl)piperazine]
Firefly/Renilla luciferase expression (Hedgehog activation) [1]: not able to activate the pathway
SAG-induced HH activity (Firefly/Renilla luciferase) [1]: inhibited the SAG-induced HH activity

C=CCn1c(C=Cc2ccccc2)nc2ccccc21 [Hit H15, 1-allyl-2-(2-phenylvinyl)-1H-benzimidazole]
effect on mitochondrial health (JC1, intact and damaged mitochondria) [4]: significant beneficial effect on mitochondrial health
Firefly/Renilla luciferase expression (Hedgehog activation) [1]: able to activate the Hedgehog signaling pathway

COc1ccc(OC)c(N=Nc2nc3ccccc3n2C)c1 [Hit H16, 2-[(2,5-dimethoxyphenyl)diazenyl]-1-methyl-1H-benzimidazole]
cell viability / toxicity (crystal violet) ([2]; Mut MEFs, 10 μM, 24 hours (FIG. 14B)): significant decrease in cell viability

Cc1cc(-c2ccccc2)nc2cc(C(=O)N3C(C)CCCC3C)nn12 (centres unmarked) [Hit H17, 2-[(2,6-dimethyl-1-piperidinyl)carbonyl]-7-methyl-5-phenylpyrazolo[1,5-a]pyrimidine]
effect on mitochondrial health (JC1, intact and damaged mitochondria) [4]: significant beneficial effect on mitochondrial health

CCCN(CCC)CCc1ccc(OC)c(OCCc2ccccc2)c1 [NE100]
Survival (%) ± SEM Mut MEFs ([2]; 0.1 μM): 99 ± 2.1%
Survival (%) ± SEM Mut MEFs ([2]; 1 μM): 98 ± 2.2%
Survival (%) ± SEM Mut MEFs ([2]; 10 μM): 88 ± 3.5%
Survival (%) ± SEM WT astrocytes ([5]; 0.1 μM): 98 ± 1.8%
Survival (%) ± SEM WT astrocytes ([5]; 1 μM): 86 ± 1.1%
Survival (%) ± SEM WT astrocytes ([5]; 10 μM): 79 ± 2.2%
Survival (%) ± SEM Mut astrocytes ([6]; 1 μM): 94 ± 4.7%
Survival (%) ± SEM Mut astrocytes ([6]; 10 μM): 82 ± 4.3%
Survival (%) ± SEM Mut astrocytes ([6]; 30 μM): 65 ± 2.2%
mitochondrial content in Mut MEFs [7]: increased mitochondrial content in a dose dependent manner
TMRE staining (mitochondrial membrane potential) [8]: negative effect on TMRE staining
basal respiration and ATP-linked respiration per cell (OCR) [9]: negative effect

CNC1CCC(N(Cc2cccc(-c3ccncc3)c2)C(=O)c2sc3ccccc3c2Cl)CC1 (centres unmarked) [SAG, reference compound]
Survival (%) ± SEM Mut MEFs ([2]; 0.01 μM): 98 ± 2.1%
Survival (%) ± SEM Mut MEFs ([2]; 0.05 μM): 92 ± 3.2%
Survival (%) ± SEM Mut MEFs ([2]; 0.1 μM): 95 ± 2.1%
Survival (%) ± SEM Mut MEFs ([2]; 1 μM): 68 ± 2.7%
